{
  "source": "patent US12533357B2",
  "about": "“Treatment for acute myeloid leukemia or myelodysplastic syndrome” (UNIVERSITY HEALTH NETWORK, priority 2019, dated 2026)",
  "key": {"MOLT-4": {"system": "MOLT-4", "experiment": "In vitro cytotoxicity (IC50) assay, alamarBlue", "type": "cell-based, human", "details": "MOLT-4, T-ALL", "protocol": "(§1) Cells were seeded in triplicate at 10,000 per 80 uL, into 96-well plates 24 hours before compound overlay and cultured at 37° C. and 5% CO2. Compound (I) was prepared as a 10 mM stock in 100% DMSO and diluted with RPMI 1640 cell growth medium containing 10% FBS such that the final concentrations ranged from 50 pM to 15 uM. Aliquots (20 uL) from each concentration were overlaid to 80 uL of pre-seeded cells to achieve final concentrations of 10 pM to 3 uM. After 3 days, cell viability in each well was assessed by alamarBlue assay according to the manufacturer's instruction (ThermoFisher Scientific). Absorbance was read at 570 nm using a SpectraPlus microplate reader (Molecular Devices Corporation). alamarBlue absorbance values were adjusted by subtracting the average of the baseline readings from untreated cells assessed one day after cell seeding. The percentage (%) of relative inhibition of cell viability was calculated by comparing to DMSO-treated cells. IC50s were calculated using GraphPad PRISM software (GraphPad Software Inc.)."}, "MV4-11": {"system": "MV4-11", "experiment": "In vitro cytotoxicity (IC50) assay, alamarBlue", "type": "cell-based, human", "details": "MV4-11, AML M5", "protocol": "as §1"}, "[1]": {"system": "MV4-11 acute myeloid leukemia xenograft", "experiment": "MV4-11 xenograft tumor growth in SCID mice", "type": "in vivo", "details": "for tumor response by day 10: fumarate", "protocol": "(§2) The human acute myeloid leukemia cell line MV4-11 was acquired from American Type Culture Collection (Manassas, VA, USA) and grown in RPMI medium containing 100 units/mL penicillin G sodium, 100 μg/mL streptomycin sulfate. The media was supplemented with 10% heat-inactivated fetal bovine serum, 2 mM L-glutamine, and 0.11% sodium pyruvate. The tumor cells were maintained in a humidified environment of 5% CO2 and 95% air at 37° C. Cells were verified to be free of mouse pathogens by IMPACT IV PCR analysis (IDEXX RADIL, Colombia, MO, USA) before injection.\n(§3) Female SCID mice were purchased from the Ontario Cancer Institute and received and acclimated at the MaRS-TMDT Animal Resources Centre for 2 weeks prior to the start of the experiment. The mice were fed ad libitum autoclaved water and Rodent Lab Diet (Harlan Teklad LM-485) consisting of 19% crude protein, 5% crude fat, and 5% crude fiber. Mice were housed in microisolator cages and maintained in an environment with a 12-hour light cycle at 20-22° C. and 40-60% humidity. On the day of implantation, MV4-11 cells were harvested and resuspended with serum free DMEM to a concentration of 1×10^8/mL and each mouse was injected subcutaneously with a volume of 0.1 mL containing 1×10^7 MV4-11 cells in the right rear flank.\nAnimals were dosed Compound (I) via oral gavage in a volume of 10 ml/kg. The animals were dosed with a 2.25 mm×50 mm curved gavage needle affixed to a 1 ml syringe. Vincristine was dosed by IP injection once per week.\n(§4) Toxicity was evaluated by body weight measurements and clinical observations. The mice were observed daily for overt signs of any adverse, treatment related side effects, and clinical signs of toxicity. Acceptable toxicity was set at a group mean body weight loss of less than 20% during the study and not more than one treatment related death in a group. Animals were monitored for body weights and tumor growth where tumor volumes were calculated using the formula: tumor volume=width^2×length/2.\nThe study evaluated Compound (I) fumarate administered by oral gavage, either daily at 7.5 mg/kg or 2 days on/5 days off at 13.5 mg/kg, in comparison to the standard-of-care agent vincristine, dosed in 4 weekly intraperitoneal injections of 0.5 mg/kg, in the MV4-11 acute myeloid leukemia xenograft model in SCID (severe combined immunodeficiency) mice. Xenografts were established by subcutaneously injecting 1×10^7 tumor cells into the right flank of female SCID mice. Treatment was initiated 14 days following implantation when tumor volumes reached a mean volume of approximately 90 mm^3. […] Animals were dosed in the 2-on/5-off schedule for 21 days. […] By day 13, the average volume of the control tumors was 878 mm^3, averaging […] tumor growth over the 13 days. On day 13 the average tumor growth inhibition in the vincristine treated arm was 85% (p=0.14)."}, "[2]": {"system": "MOLT-4 acute lymphoblastic leukemia xenograft", "experiment": "MOLT-4 xenograft tumor growth in SCID mice", "type": "in vivo", "details": "for complete regressions: 21 days of dosing; for tumors with regression observed / average tumor regression: day 13, fumarate", "protocol": "as §2, with “lymphoblastic” for “myeloid”, “MOLT-4” for “MV4-11”\nas §3, with “MOLT-4” for “MV4-11”\nAnimals were dosed Compound (I) via oral gavage in a volume of 10 mL/kg. The animals were dosed with a 2.25 mm×50 mm curved gavage needle affixed to a 1 mL syringe. Vincristine was dosed by IP injection once per week.\nas §4\nThe study evaluated Compound (I) fumarate administered by oral gavage for 21 days, either daily at 7.5 mg/kg or 2 days on/5 days off at 13.5 mg/kg, in comparison to the standard-of-care agent vincristine, dosed in 4 weekly intraperitoneal injections of 0.5 mg/kg, in the MOLT-4 […] xenograft model in SCID (severe combined immunodeficiency) mice. Xenografts were established by subcutaneously injecting 1×10^7 tumor cells into the right flank of female SCID mice. Treatment was initiated 9 days following implantation when tumor volumes reached a mean volume of approximately 250 mm^3."}, "[3]": {"details": "Homo sapiens, 72 h, 3 days, read-out: Compound (I) IC50"}, "[4]": {"details": "Day 25, 2-on/5-off arm 13.5 mg/kg"}},
  "data": [
    {"smiles": "COc1ccc2c(c1)[C@]1(C[C@H]1c1ccc3c(/C=C/c4ccc(CN5C[C@@H](C)O[C@@H](C)C5)cc4)n[nH]c3c1)C(=O)N2", "note": "[Compound (I), (1R,2S)-2-(3-((E)-4-(((2S,6R)-2,6-dimethylmorpholino)methyl)styryl)-1H-indazol-6-yl)-5′-methoxyspiro[cyclopropane-1,3′-indolin]-2′-one]", "values": [
      {"measurement": "IC50", "setting": "MOLT-4; [3]", "value": 4.1, "unit": "nM"},
      {"measurement": "Response to Compound (I)", "setting": "MOLT-4", "value": "death"},
      {"measurement": "IC50", "setting": "MV4-11; [3]", "value": 5.7, "unit": "nM"},
      {"measurement": "Response to Compound (I)", "setting": "MV4-11", "value": "death"},
      {"measurement": "animals remained tumor-free until", "setting": "[1]; 2 days-on/5 days-off arm, 13.5 mg/kg", "value": 24, "unit": "days"},
      {"measurement": "overall efficacy in MV4-11 xenograft model", "setting": "[1]; SCID mice", "value": "very efficacious and potentially curative"},
      {"measurement": "animals remained tumor-free until", "setting": "[1]; daily dosing arm, 7.5 mg/kg", "value": 74, "unit": "days"},
      {"measurement": "animals tumor free until last measurement time point", "setting": "[1]; daily dosing arm, Day 128", "value": "Four of 6"},
      {"measurement": "tumor response by day 10", "setting": "[1]; oral 13.5 mg/kg 2-on/5-off", "value": "completely regressed tumors"},
      {"measurement": "tumor response by day 10", "setting": "[1]; oral daily 7.5 mg/kg", "value": "completely regressed tumors"},
      {"measurement": "toxicity: reason daily dosing was halted", "setting": "[1]; oral daily 7.5 mg/kg, halted after 14 days", "value": "excessive body weight loss"},
      {"measurement": "average regression", "setting": "[2]; [4]", "value": 96, "unit": "%"},
      {"measurement": "complete regressions", "setting": "[2]; [4]", "value": "6 of 8"},
      {"measurement": "complete regressions", "setting": "[2]; Day 25, daily dosing arm 7.5 mg/kg", "value": "8 of 8"},
      {"measurement": "overall efficacy in MOLT-4 xenograft model", "setting": "[2]; SCID mice", "value": "very efficacious and potentially curative"},
      {"measurement": "tumors with regression observed", "setting": "[2]; oral 13.5 mg/kg 2-on/5-off", "value": "7 of 8"},
      {"measurement": "average tumor regression", "setting": "[2]; oral 13.5 mg/kg 2-on/5-off, p=6.5*10^-6", "value": 28, "unit": "%"},
      {"measurement": "tumors with regression observed", "setting": "[2]; oral daily 7.5 mg/kg", "value": "7 of 8"},
      {"measurement": "average tumor regression", "setting": "[2]; oral daily 7.5 mg/kg, p=2.5*10^-6", "value": 77, "unit": "%"}
    ]}
  ]
}
